Measured values: US20060100243A1 (priority 2004, published 2006)
Entries after “also recorded” stand apart in the source; their conditions may differ. Read-outs that look alike come from different tables or passages of the source.

Assays:
[1] = target: T1, recombinant human serotonin transporter (Homo sapiens, UniProt P31645); test: biochemical; format: binding
T1 construct: expressed in transfected cells

[2] = target: T2, recombinant human dopamine transporter (Homo sapiens, UniProt Q01959); test: dopamine reuptake inhibition in HEK 293 cells; format: cell-based; details: for IC50: HEK 293 cells; for selectivity for the dopamine transporter over the norepinephrine transporter: in words, from binding and reuptake values; for NE/DA REUPTAKE: ratio of NE/DA reuptake IC50, selectivity for dopamine over norepinephrine transporter
T2 construct: expressed in transfected cells
T2 sequence (Q01959 whole entry): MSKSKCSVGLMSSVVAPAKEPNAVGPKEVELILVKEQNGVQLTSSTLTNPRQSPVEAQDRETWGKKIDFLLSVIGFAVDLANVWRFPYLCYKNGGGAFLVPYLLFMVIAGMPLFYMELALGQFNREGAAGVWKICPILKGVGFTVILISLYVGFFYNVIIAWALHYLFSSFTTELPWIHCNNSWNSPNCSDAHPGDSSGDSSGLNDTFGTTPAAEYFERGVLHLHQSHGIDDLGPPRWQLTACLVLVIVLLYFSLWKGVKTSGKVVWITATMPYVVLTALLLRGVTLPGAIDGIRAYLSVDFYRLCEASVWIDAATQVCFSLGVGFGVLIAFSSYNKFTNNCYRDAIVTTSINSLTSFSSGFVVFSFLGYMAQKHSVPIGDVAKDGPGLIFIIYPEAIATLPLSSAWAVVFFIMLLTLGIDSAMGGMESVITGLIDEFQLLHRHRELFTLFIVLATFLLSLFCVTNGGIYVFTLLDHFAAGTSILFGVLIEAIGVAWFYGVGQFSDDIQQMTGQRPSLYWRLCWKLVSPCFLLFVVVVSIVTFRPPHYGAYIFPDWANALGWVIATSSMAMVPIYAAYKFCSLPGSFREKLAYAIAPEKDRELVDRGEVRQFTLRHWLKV

[3] = target: T1, recombinant human serotonin transporter; test: serotonin (5HT) reuptake inhibition in HEK 293 cells; format: cell-based
[4] = target: T2, recombinant human dopamine transporter; test: [125I]RTI-55 binding, dopamine transporter in HEK 293 cells; details: for Ki: HEK 293 cells; for potency at binding to the dopamine transporter and blocking dopamine reuptake: in words, compared with MPH / other samples
[5] = target: T3, recombinant human norepinephrine transporter (Homo sapiens, UniProt P23975); test: cell-based
T3 construct: expressed in transfected cells
T3 sequence (P23975 whole entry): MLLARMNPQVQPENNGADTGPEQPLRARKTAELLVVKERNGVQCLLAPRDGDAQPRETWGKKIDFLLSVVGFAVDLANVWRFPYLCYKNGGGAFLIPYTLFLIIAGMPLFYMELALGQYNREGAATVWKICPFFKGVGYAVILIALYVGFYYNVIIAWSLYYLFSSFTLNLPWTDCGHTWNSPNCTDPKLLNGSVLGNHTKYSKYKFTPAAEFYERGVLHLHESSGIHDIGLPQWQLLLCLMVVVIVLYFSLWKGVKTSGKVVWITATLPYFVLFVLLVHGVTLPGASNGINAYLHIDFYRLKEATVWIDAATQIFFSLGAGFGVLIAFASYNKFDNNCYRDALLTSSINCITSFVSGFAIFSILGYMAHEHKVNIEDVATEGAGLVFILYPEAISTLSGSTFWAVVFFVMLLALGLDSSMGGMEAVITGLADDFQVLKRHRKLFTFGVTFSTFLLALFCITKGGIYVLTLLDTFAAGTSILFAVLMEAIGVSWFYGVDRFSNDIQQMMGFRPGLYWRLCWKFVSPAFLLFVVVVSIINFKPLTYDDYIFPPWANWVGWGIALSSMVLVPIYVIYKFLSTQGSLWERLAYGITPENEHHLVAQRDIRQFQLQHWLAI

[6] = target: T3, recombinant human norepinephrine transporter; test: biochemical; format: binding
[7] = RS/SR racemates table, HEK 293 cells, read-out: SEROTONIN [I125]-RTI-55 BINDING (Ki)
[8] = DOPAMINE DA REUPTAKE (IC50), RS/SR racemates table
[9] = SEROTONIN 5HT REUPTAKE (IC50), RS/SR racemates table, HEK 293 cells
[10] = DOPAMINE [I125]-RTI-55 BINDING (Ki), RS/SR racemates table
[11] = NOREPINEPHRINE [I125]-RTI-55 BINDING (Ki)
[12] = RR/SS racemates table, HEK 293 cells, read-out: SEROTONIN [I125]-RTI-55 BINDING (Ki)
[13] = DOPAMINE DA REUPTAKE (IC50), RR/SS racemates table
[14] = DOPAMINE [I125]-RTI-55 BINDING (Ki), RR/SS racemates table
[15] = RS/SR racemates table, read-out: DOPAMINE DA REUPTAKE (IC50)
[16] = RS/SR racemates table, read-out: DOPAMINE [I125]-RTI-55 BINDING (Ki)
[17] = RS/SR racemates table, HEK 293 cells, read-out: NOREPINEPHRINE NE REUPTAKE (IC50)
[18] = RS/SR racemates table, HEK 293 cells, read-out: NOREPINEPHRINE [I125]-RTI-55 BINDING (Ki)
[19] = RR/SS racemates table, read-out: DOPAMINE DA REUPTAKE (IC50)
[20] = RR/SS racemates table, read-out: DOPAMINE [I125]-RTI-55 BINDING (Ki)
[21] = RR/SS racemates table, HEK 293 cells, read-out: NOREPINEPHRINE NE REUPTAKE (IC50)
[22] = RR/SS racemates table, HEK 293 cells, read-out: NOREPINEPHRINE [I125]-RTI-55 BINDING (Ki)
[23] = SEROTONIN [I125]-RTI-55 BINDING (Ki)
[24] = SEROTONIN 5HT REUPTAKE (IC50), RR/SS racemates table, HEK 293 cells
[25] = RR/SS racemates table, HEK 293 cells, read-out: SEROTONIN 5HT REUPTAKE (IC50)

T1 sequence (P31645 whole entry): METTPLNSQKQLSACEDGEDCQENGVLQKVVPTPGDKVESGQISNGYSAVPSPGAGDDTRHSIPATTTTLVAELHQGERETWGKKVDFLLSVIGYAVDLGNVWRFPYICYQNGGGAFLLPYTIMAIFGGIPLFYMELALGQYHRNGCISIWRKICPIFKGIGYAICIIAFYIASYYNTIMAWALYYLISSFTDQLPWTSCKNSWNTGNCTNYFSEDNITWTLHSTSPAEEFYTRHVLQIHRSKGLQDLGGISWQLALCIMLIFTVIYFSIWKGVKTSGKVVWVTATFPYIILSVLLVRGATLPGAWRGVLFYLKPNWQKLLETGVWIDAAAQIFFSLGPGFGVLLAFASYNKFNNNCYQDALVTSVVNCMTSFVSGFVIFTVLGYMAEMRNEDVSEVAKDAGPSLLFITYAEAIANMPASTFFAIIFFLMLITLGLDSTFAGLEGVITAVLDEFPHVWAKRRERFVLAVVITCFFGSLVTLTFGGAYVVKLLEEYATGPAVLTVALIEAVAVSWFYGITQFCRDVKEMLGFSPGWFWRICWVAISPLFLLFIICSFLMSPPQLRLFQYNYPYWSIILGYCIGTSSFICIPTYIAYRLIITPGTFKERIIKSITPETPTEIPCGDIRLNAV

For CCCC(c1ccc(Cl)cc1)C1CCCCN1 (racemic) [EE], the Ki [1, 7] was 3200 ± 1100 nM, the IC50 [2, 8] was 450 ± 60 nM and the IC50 [3, 9] was 1.3 ± 0.007 µM. For the same molecule, the Ki [4, 10] was 380 ± 40 nM, the IC50 ([5]; NORE[…] REUPTAKE (IC50)) was 200 ± 50 nM and the Ki [6, 11] was 1.4 ± 0.4 µM.

Molecule CC(C)(C)CC(c1ccc(Cl)cc1)C1CCCCN1 (racemic) [FF] has a Ki [1, 7] of 3500 ± 1000 nM, an IC50 [2, 8] of 670 ± 260 nM and an IC50 [3, 9] of 1.8 ± 0.6 µM. It also gave a Ki [4, 10] of 600 ± 40 nM and an IC50 ([5]; NORE[…] REUPTAKE (IC50)) of 730 ± 250 nM.

CC(C)(C)CC(c1ccc(Cl)cc1)C1CCCCN1 (racemic) [F] was tested, and the Ki [1, 12] was 3900 ± 500 nM, the IC50 [2, 13] was 60 ± 2 nM and the “selectivity for the dopamine transporter over the norepinephrine transporter” value (“selectivity for the dopamine transporter” below) [2] was “enhanced selectivity”. For the same molecule, the “NE/DA REUPTAKE” value [2] was 8.7, the Ki [4, 14] was 120 ± 40 nM and the IC50 ([5]; NORE[…] REUPTAKE (IC50)) was 520 ± 110 nM. For the same molecule, the Ki [6, 11] was 1.4 ± 0.4 µM.

For Clc1ccc(C(CC2CCCC2)C2CCCCN2)cc1 (racemic) [LL], the IC50 [2, 15] was 180 ± 20 nM, the Ki [4, 16] was 310 ± 80 nM and the IC50 [5, 17] was 730 ± 230 nM. It also gave a Ki [6, 18] of 2.6 ± 0.8 µM.

For Clc1ccc(C(CC2CCCC2)C2CCCCN2)cc1 (racemic) [L], the IC50 [2, 19] was 21 ± 1 nM, the Ki [4, 20] was 9.4 ± 1.5 nM and the IC50 [5, 21] was 310 ± 40 nM. The Ki [6, 22] was 1.7 ± 0.6 µM.

Work on CC(C)CC(c1ccc(C(C)C)cc1)C1CCCCN1 (racemic) [PP] yielded a Ki [1, 23] of 1700 ± 500 nM, an IC50 [3, 9] of 1.7 ± 0.1 µM and a Ki [6, 11] of 3.2 ± 0.6 µM.

For CC(C)CC(c1ccc(C(C)C)cc1)C1CCCCN1 (racemic) [P], the Ki [1, 23] was 3300 ± 600 nM, the IC50 [2, 13] was 4000 ± 400 nM and the “NE/DA REUPTAKE” value [2] was 1.8. For the same molecule, the IC50 [3, 24] was 4.7 ± 0.7 µM, the Ki [4, 14] was 3300 ± 600 nM and the IC50 ([5]; NORE[…] REUPTAKE (IC50)) was 7100 ± 1800 nM. For the same molecule, the Ki [6, 11] was 2.5 ± 0.6 µM.

With CC(C)CC(c1ccc(Cl)cc1)C1CCCCN1 (racemic) [Sample DD] the IC50 [2, 15] was 380 ± 130 nM, the Ki [4, 16] was 170 ± 50 nM and the “potency at binding to the dopamine transporter and blocking dopamine reuptake” value (“potency at binding” below) [4] was “inactivity”. The IC50 [5, 17] was 750 ± 170 nM and the Ki [6, 18] was 4.5 ± 1.5 µM.

With CCCC(c1ccc(Cl)cc1)C1CCCCN1 (racemic) [Sample E] the Ki [1, 12] was 2700 ± 600 nM, the IC50 [2, 19] was 7.4 ± 0.4 nM and the “selectivity for the dopamine transporter” value [2] was “enhanced selectivity”. The “NE/DA REUPTAKE” value [2] was 6.8, the IC50 [3, 25] was 2.9 ± 1.1 µM and the Ki [4, 20] was 11 ± 3 nM. For the same molecule, the “potency at binding” value [4] was “enhanced potency; also recorded: most potent”, the IC50 [5, 21] was 50 ± 15 nM and the Ki [6, 22] was 0.2 ± 0.08 µM.

CC(C)CC(c1ccc(Cl)c(Cl)c1)C1CCCCN1 (racemic) [Sample NN] showed a Ki [1, 7] of 450 ± 40 nM, an IC50 [2, 15] of 13 ± 3 nM and an IC50 ([3]; RS/SR racemates table, HEK 293 cells, read-out: SEROTONIN 5HT REUPTAKE (IC50)) of 0.29 ± 0.06 µM. For the same molecule, the Ki [4, 16] was 31 ± 11 nM, the “potency at binding” value [4] was “considerably more potent; also recorded: most potent” and the IC50 [5, 17] was 19 ± 3 nM. For the same molecule, the Ki [6, 18] was 0.12 ± 0.03 µM.

In the case of CC(C)CC(c1ccc(Cl)c(Cl)c1)C1CCCCN1 (racemic) [Sample N], the Ki [1, 12] is reported as 1600 ± 100 nM, the IC50 [2, 19] is reported as 5.5 ± 1.3 nM and the “NE/DA REUPTAKE” value [2] is reported as 1.6. For the same molecule, the IC50 [3, 25] was 1.1 ± 0.3 µM, the Ki [4, 20] was 1 ± 0.5 nM and the “potency at binding” value [4] was “enhanced potency; also recorded: most potent”. It also gave an IC50 [5, 21] of 9 ± 1 nM and a Ki [6, 22] of 0.025 ± 0.009 µM.

COC(=O)C(c1ccc(Cl)cc1)C1CCCCN1 (single isomer, unassigned) [AA] was tested, and the Ki [1, 23] was 5900 ± 200 nM, the IC50 [2, 8] was 2700 ± 1000 nM and the IC50 ([3]; SEROTONIN 5HT REUPTAKE (IC50), RS/SR racemates table, in μM) was greater than 10 µM. It also gave a Ki [4, 10] of 2000 ± 600 nM and an IC50 [5, 17] of 1400 ± 400 nM.

With COC(=O)C(c1ccc(Cl)cc1)C1CCCCN1 (single isomer, unassigned) [A] the Ki [1, 23] was 6000 ± 100 nM, the IC50 [2, 13] was 11 ± 2 nM and the “NE/DA REUPTAKE” value [2] was 1.0. The Ki [4, 14] was 25 ± 8 nM, the IC50 [5, 21] was 11 ± 3 nM and the Ki [6, 22] was 0.11 ± 0.04 µM.

For CCC(c1ccc(Cl)cc1)C1CCCCN1 (single isomer, unassigned) [BB], the Ki [1, 23] was 5700 ± 800 nM, the IC50 [2, 8] was 2200 ± 300 nM and the IC50 [3, 9] was 2 ± 0.6 µM. The Ki [4, 10] was 3500 ± 1000 nM and the Ki ([6]; RS/SR racemates table, in μM, read-out: NOREPINEPHRINE [I125]-RTI-55 BINDING (Ki)) was greater than 10 µM.

With CCC(c1ccc(Cl)cc1)C1CCCCN1 (single isomer, unassigned) [B] the Ki [1, 23] was 7800 ± 800 nM, the IC50 [2, 13] was 23 ± 5 nM and the “selectivity for the dopamine transporter” value [2] was “enhanced selectivity”. The “NE/DA REUPTAKE” value [2] was 9.1, the IC50 [3, 24] was 2.4 ± 0.4 µM and the Ki [4, 14] was 37 ± 10 nM. For the same molecule, the IC50 [5, 21] was 210 ± 30 nM and the Ki [6, 22] was 0.36 ± 0.06 µM.
